Legend:
cyclooxygenase = experiment: inhibition of cyclooxygenase conversion of radiolabeled arachidonic acid into prostaglandins in homogenate of inflamed gingival tissue; type: biochemical, humans; conditions: comparison of IC₅₀ values
Experimental: Inflamed gingival tissues from the mouths of humans suffering from periodontal disease were used fresh or stored in liquid nitrogen until used. Tis­sues were pooled, homogenized in 0.2 M TRIS buffer, and centrifuged. Radiolabeled arachidonic acid (¹⁴C) was added to the centrifrugate into which various in­hibiting agents under study had been incorporated into separate aliquots, at various molar levels (log range of 10⁻³ to 10⁻⁹M). The reaction between arachidonic acid and test materials was carried out for 2 hours at 37°C.
Prostaglandins in the biological reaction mixtures were extracted and quantitatively determined by high performance liquid chromatography.

alveolar bone resorption = conditions: long-term therapy, compared to matched undosed control group; cited from earlier work
[1] = test system: naturally occurring periodontal disease; conditions: systemic doses, 12-month treatment, compared to untreated or periodontal surgery control groups; cited from earlier work

SMILES	rate of alveolar bone resorption (alveolar bone resorption)	further results
CC(C(=O)O)c1cccc(C(=O)c2ccccc2)c1 (stereo not shown) [2-methyl (3-benzoylphenyl) propanoic acid]	–	effectiveness compared with other test materials (cyclooxygenase): slightly more effective than alpha tocopherol
CC(=O)Oc1ccccc1C(=O)O [aspirin]	lower rate of alveolar bone resorption	–
COc1ccc2c(c1)c(CC(=O)O)c(C)n2C(=O)c1ccc(Cl)cc1 [Indomethacin]	lower rate of alveolar bone resorption	–
CC(C(=O)O)c1ccc(-c2ccccc2)c(F)c1 (stereo not shown) [Flurbiprofen]	–	alveolar bone loss [1]: significant reduction in alveolar bone loss

Source: patent EP0363224A1, “Treatment of periodontal disease” (BLOCK DRUG COMPANY INC., priority 1988, dated 1990)
